Measurements: patent publication US9670242B2, “Tetracyclic anthraquinone derivatives” (Tianjin Hemay Bio-Tech Co., Ltd, priority 2012, dated 2017)

Columns and labels:
NCI-H460 cells = experiment: NCI-H460 cell growth inhibition test (MTT assay); type: cell-based, human; conditions: NCI-460 cells (NCI-H460 in method), 72 h
Experimental: NCI-H460 Cell Growth Inhibition Test (MTT Assay)
(§1) II. Reagents and Consumable Materials
Culture medium: 90% RPMI1640+10% FBS (fetal calf serum); Pancreatin (0.25% (w/v) solution was formulated with PBS, 0.53 mM of EDTA was added in the formulation); PBS; 96-well culture plate.
(§2) 1. A plate (10 cm) of cells in logarithmic growth phase that were normally cultured was collected;
(§3) 2. The culture solution was sucked out. The plate was washed with 5 mL of PBS once or twice;
3. PBS was sucked out. 1.5 mL of 0.25% pancreatin was added to the plate to infiltrate the cells for 1 min;
4. The culture plate was placed in an incubator. Digestion was carried out for about 3 min at 37° C.;
(§4) 5. 3 mL of complete culture solution was added to the culture plate to stop the digestion. The cells were carefully scoured with micropipette (1 mL) to give a uniform cell suspension. The suspension was implanted into a 96-well cell culture disc by 2000 cells/100 μL per well. The culture plate was incubated overnight under 5% CO2 at 37° C. In day 2, 100 μL of culture solution comprising a compound was added in each well. The plate was further incubated for 72 h under 5% CO2 at 37° C.;
6. The culture solution was sucked out;
7. 100 μL of serum-free culture solution containing 0.5 mg/mL MTT was added in each well. The plate was incubated for 3 h;
8. The culture solution was carefully sucked out;
9. […]
10. OD values were determined at 490 nM. […]

Hep3B cells = experiment: Hep3B cell growth inhibition test (SRB assay); type: cell-based; conditions: 72 h
Experimental: Hep3B Cell Growth Inhibition Test (SRB Assay)
as §1
Culture medium: 90% RPMI-1640+10% FBS; Pancreatin (0.25% (w/v) solution was formulated with PBS, 0.53 mM of EDTA was added in the formulation); PBS; 96-well culture plate.
as §2, §3
3. 1.5 mL of 0.25% pancreatin was added to the plate to infiltrate the cells;
4. The pancreatin was sucked out. The culture plate was placed in an incubator. Digestion was carried out for about 3 min at 37° C.;
as §4, with “5. 4” for “5. 3”, “uniform single” for “uniform”, “culture plate” for “culture disc”, “by 5000” for “by 2000”
6. The culture solution was sucked out. 100 uL of TCA fixed cells which were diluted to 10% were added to each well. The plate was kept in a refrigerator for 1 h at 4° C.
7. TCA stationary liquid was sucked out. Each well was washed with 150 μL of ddH2O five times;
8. After the stationary liquid was cleansed, the plate was dried in the air at the room temperature;
9. 60 μL of SRB staining solution was added in each well. The well was stained for 15 min at the room temperature;
10. The SRB staining solution was sucked out. Each well was washed with 150 μL of 1% glacial acetic acid five times;
11. After the SRB staining solution was cleansed, the plate was dried in the air at the room temperature;
12. 100 μL of 10 mM Tris was added in each well. The plate was vibrated to dissolve out SRB;
13. OD values were determined at 570 nM.
IV. Results and Treatments
1. Calculation of Relative Inhibition Ratio The inhibition ratio of the compound on cell growth=(PC−n)/(PC−NC)×100% […]

For `COc1cccc2c1C(=O)c1c(O)c3c(c(O)c1C2=O)CC(O)(C(=O)COC(=O)CCC(=O)O)CC3OC1CC(n2cccc2)C(O)C(C)O1` (centres unmarked) [Compound A, 3′-pyrrolyldoxorubicin-14-oxo-succinic acid monoester, reference compound], the IC50 (NCI-H460 cells) was 21 nM and the IC50 (Hep3B cells) was 444 nM.
